Results: PMC13040415, “Structure and Mechanism of PhdC, a Prenylated‐Flavin Maturase” (Proteins, 2025)

Tests used:
PhdC [1] = biological target: T1, PhdC (Mycolicibacterium fortuitum, UniProt A0A0N9XAG5); experiment: differential scanning fluorimetry (SUPR-DSF); Tm of apo to Tm of FMN-bound; assay type: binding; conditions: 100 mM KPi, pH 7.5; ramp 1°C/min
T1 construct: gene XA26_16660; homodimer, site at dimer interface
T1 sequence (A0A0N9XAG5 2-155): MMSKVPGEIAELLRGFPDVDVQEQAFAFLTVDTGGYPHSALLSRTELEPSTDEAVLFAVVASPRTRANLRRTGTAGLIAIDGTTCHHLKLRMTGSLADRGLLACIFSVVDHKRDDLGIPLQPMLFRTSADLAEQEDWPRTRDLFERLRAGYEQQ

PhdC [2] = biological target: T1, PhdC; experiment: isothermal titration calorimetry; assay type: binding

Cc1cc2nc3c(=O)[nH]c(=O)nc-3n(C[C@H](O)[C@H](O)[C@H](O)COP(=O)(O)O)c2cc1C [FMN]
Tm (PhdC [1]): 63.6 to 66.5 °C | Kd (PhdC [2]): 17.8 ± 0.26 µM
